Source: US12077503B2, “Substituted cyclic amides and their use as herbicides” (FMC CORPORATION, priority 2015, dated 2024)

Columns and labels:
Format in all cases: in vivo
[1] = test system: ryegrass, Italian (Italian ryegrass, Lolium multiflorum); assay: Test A postemergence; conditions: postemergence; for Ryegrass, Italian plant response rating: 125 g ai/ha, visual injury rating on 0 to 100 scale (0 no effect, 100 complete control), approx. 10 d; for Plant response rating, Ryegrass, Italian: 500 g ai/ha, 0 to 100 scale, 0 no effect, 100 complete control
Summary of the method: (§1)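 Ratings of 0 (no effect) to 100 (complete control) come from visual comparison with untreated controls roughly 10 d after treatment. Test chemicals, formulated in a non-phytotoxic solvent mixture with surfactant, were applied either as a preemergence directed soil spray on seeded soil or postemergence to one- to two-leaf plants 2 to 10 cm tall.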

[2] = test system: Galium (catchweed bedstraw, Galium aparine); assay: Test A postemergence; conditions: postemergence; for Galium plant response rating: 125 g ai/ha, visual injury rating on 0 to 100 scale (0 no effect, 100 complete control), approx. 10 d; for Plant response rating, Galium: 500 g ai/ha, 0 to 100 scale, 0 no effect, 100 complete control
Summary of the method: as §1

[3] = test system: wheat (Triticum aestivum); assay: Test A postemergence; conditions: postemergence; for Wheat plant response rating: 125 g ai/ha, visual injury rating on 0 to 100 scale (0 no effect, 100 complete control), approx. 10 d; for Plant response rating, Wheat: 500 g ai/ha, 0 to 100 scale, 0 no effect, 100 complete control
Summary of the method: as §1

[4] = test system: corn (Zea mays); assay: Test A postemergence; conditions: postemergence; for Corn plant response rating: 125 g ai/ha, visual injury rating on 0 to 100 scale (0 no effect, 100 complete control), approx. 10 d; for Plant response rating, Corn: 500 g ai/ha, 0 to 100 scale, 0 no effect, 100 complete control
Summary of the method: as §1

[5] = test system: pigweed (Amaranthus retroflexus); assay: Test A postemergence; conditions: postemergence; for Pigweed plant response rating: 125 g ai/ha, visual injury rating on 0 to 100 scale (0 no effect, 100 complete control), approx. 10 d; for Plant response rating, Pigweed: 500 g ai/ha, 0 to 100 scale, 0 no effect, 100 complete control
Summary of the method: as §1

[6] = test system: barnyardgrass (Echinochloa crus-galli); assay: Test A postemergence; conditions: postemergence; for Barnyardgrass plant response rating: 125 g ai/ha, visual injury rating on 0 to 100 scale (0 no effect, 100 complete control), approx. 10 d; for Plant response rating, Barnyardgrass: 500 g ai/ha, 0 to 100 scale, 0 no effect, 100 complete control
Summary of the method: as §1

[7] = test system: blackgrass (Alopecurus myosuroides); assay: Test A postemergence; conditions: postemergence; for Blackgrass plant response rating: 125 g ai/ha, visual injury rating on 0 to 100 scale (0 no effect, 100 complete control), approx. 10 d; for Plant response rating, Blackgrass: 500 g ai/ha, 0 to 100 scale, 0 no effect, 100 complete control
Summary of the method: as §1

[8] = test system: Kochia (Kochia scoparia); assay: Test A postemergence; conditions: postemergence; for Kochia plant response rating: 125 g ai/ha, visual injury rating on 0 to 100 scale (0 no effect, 100 complete control), approx. 10 d; for Plant response rating, Kochia: 500 g ai/ha, 0 to 100 scale, 0 no effect, 100 complete control
Summary of the method: as §1

[9] = test system: ragweed (common ragweed, Ambrosia elatior); assay: Test A postemergence; conditions: postemergence; for Ragweed plant response rating: 125 g ai/ha, visual injury rating on 0 to 100 scale (0 no effect, 100 complete control), approx. 10 d; for Plant response rating, Ragweed: 500 g ai/ha, 0 to 100 scale, 0 no effect, 100 complete control
Summary of the method: as §1

[10] = test system: giant foxtail (Setaria faberii); assay: Test A postemergence; conditions: postemergence; for Foxtail, Giant plant response rating: 125 g ai/ha, visual injury rating on 0 to 100 scale (0 no effect, 100 complete control), approx. 10 d; for Plant response rating, Foxtail, Giant: 500 g ai/ha, 0 to 100 scale, 0 no effect, 100 complete control
Summary of the method: as §1

[11] = test system: rice (Oryra sativa); assay: Test B flooded paddy test; conditions: Flood, 250 g ai/ha; 0 to 100 scale where 0 is no effect and 100 is complete control; 13 to 15 d
Summary of the method: (§2)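 Compound goes directly into floodwater once pots are flooded 3 cm above soil, targeting plants at two leaves; the water depth is then held for the test duration. Plants sit 13–15 d in a greenhouse and are rated visually, 100 denoting complete control.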

[12] = test system: sedge, umbrella (small-flower umbrella sedge, Cyperus difformis); assay: Test B flooded paddy test; conditions: Flood, 250 g ai/ha; 0 to 100 scale where 0 is no effect and 100 is complete control; 13 to 15 d
Summary of the method: as §2

[13] = test system: barnyardgrass (Echinochloa crus-galli); assay: Test B flooded paddy test; conditions: Flood, 250 g ai/ha; 0 to 100 scale where 0 is no effect and 100 is complete control; 13 to 15 d
Summary of the method: as §2

[14] = test system: ducksalad (Heteranthera limosa); assay: Test B flooded paddy test; conditions: Flood, 250 g ai/ha; 0 to 100 scale where 0 is no effect and 100 is complete control; 13 to 15 d
Summary of the method: as §2

[15] = test system: ryegrass, Italian (Italian ryegrass, Lolium multiflorum); assay: Test A preemergence; conditions: for Plant response rating, Ryegrass, Italian: 125 g ai/ha, preemergence, 0 to 100 scale (0 no effect, 100 complete control); for Ryegrass, Italian plant response rating (0 to 100 scale, 0 is no effect, 100 is complete control): Preemergence, 500 g ai/ha, visual injury approx. 10 d
Summary of the method: as §1

[16] = test system: pigweed (Amaranthus retroflexus); assay: Test A preemergence; conditions: for Plant response rating, Pigweed: 125 g ai/ha, preemergence, 0 to 100 scale (0 no effect, 100 complete control); for Pigweed plant response rating (0 to 100 scale, 0 is no effect, 100 is complete control): Preemergence, 500 g ai/ha, visual injury approx. 10 d
[17] = test system: barnyardgrass (Echinochloa crus-galli); assay: Test A preemergence; conditions: for Plant response rating, Barnyardgrass: 125 g ai/ha, preemergence, 0 to 100 scale (0 no effect, 100 complete control); for Barnyardgrass plant response rating (0 to 100 scale, 0 is no effect, 100 is complete control): Preemergence, 500 g ai/ha, visual injury approx. 10 d
Summary of the method: as §1

[18] = test system: Kochia (Kochia scoparia); assay: Test A preemergence; conditions: for Plant response rating, Kochia: 125 g ai/ha, preemergence, 0 to 100 scale (0 no effect, 100 complete control); for Kochia plant response rating (0 to 100 scale, 0 is no effect, 100 is complete control): Preemergence, 500 g ai/ha, visual injury approx. 10 d
Summary of the method: as §1

[19] = test system: ragweed (common ragweed, Ambrosia elatior); assay: Test A preemergence; conditions: for Plant response rating, Ragweed: 125 g ai/ha, preemergence, 0 to 100 scale (0 no effect, 100 complete control); for Ragweed plant response rating (0 to 100 scale, 0 is no effect, 100 is complete control): Preemergence, 500 g ai/ha, visual injury approx. 10 d
Summary of the method: as §1

[20] = test system: giant foxtail (Setaria faberii); assay: Test A preemergence; conditions: for Plant response rating, Foxtail, Giant: 125 g ai/ha, preemergence, 0 to 100 scale (0 no effect, 100 complete control); for Foxtail, Giant plant response rating (0 to 100 scale, 0 is no effect, 100 is complete control): Preemergence, 500 g ai/ha, visual injury approx. 10 d
Summary of the method: as §1

SMILES	Ryegrass, Italian plant response rating [1]	Plant response rating, Ryegrass, Italian [1]	Galium plant response rating [2]	Plant response rating, Galium [2]	Wheat plant response rating [3]	Plant response rating, Wheat [3]	Corn plant response rating [4]	Plant response rating, Corn [4]	Pigweed plant response rating [5]	Plant response rating, Pigweed [5]	Barnyardgrass plant response rating [6]	Plant response rating, Barnyardgrass [6]	Blackgrass plant response rating [7]	Plant response rating, Blackgrass [7]	Kochia plant response rating [8]	Plant response rating, Kochia [8]	Ragweed plant response rating [9]	Plant response rating, Ragweed [9]	Foxtail, Giant plant response rating [10]	Plant response rating, Foxtail, Giant [10]	other results
CN1CC(c2ccc3c(c2)OC(F)(F)O3)C(C(=O)Nc2ccccc2F)C1=O (stereo not drawn) [Compound 441]	60	60	50	50	50	80	60	70	40	60	80	90	50	80	40	70	20	50	80	80	Plant response rating, Rice [11]: 0; Plant response rating, Sedge, Umbrella [12]: 0; Plant response rating, Barnyardgrass [13]: 70; Plant response rating, Ducksalad [14]: 90; Plant response rating, Ryegrass, Italian [15]: 70; Ryegrass, Italian plant response rating (0 to 100 scale, 0 is no effect, 100 is complete control) [15]: 80; Plant response rating, Pigweed [16]: 50; Pigweed plant response rating (0 to 100 scale, 0 is no effect, 100 is complete control) [16]: 70; Plant response rating, Barnyardgrass [17]: 90; Barnyardgrass plant response rating (0 to 100 scale, 0 is no effect, 100 is complete control) [17]: 90; Plant response rating, Kochia [18]: 70; Kochia plant response rating (0 to 100 scale, 0 is no effect, 100 is complete control) [18]: 80; Plant response rating, Ragweed [19]: 30; Ragweed plant response rating (0 to 100 scale, 0 is no effect, 100 is complete control) [19]: 80; Plant response rating, Foxtail, Giant [20]: 90; Foxtail, Giant plant response rating (0 to 100 scale, 0 is no effect, 100 is complete control) [20]: 90
O=C1NCC(c2ccc(Br)cc2)C1C(=O)Nc1ccc(F)cc1F (stereo not drawn) [Compound 447]	0	20	40	50	0	0	0	0	0	30	80	80	0	30	0	40	0	0	80	80	Plant response rating, Rice [11]: 0; Plant response rating, Sedge, Umbrella [12]: 0; Plant response rating, Barnyardgrass [13]: 40; Plant response rating, Ducksalad [14]: 98; Plant response rating, Ryegrass, Italian [15]: 20; Ryegrass, Italian plant response rating (0 to 100 scale, 0 is no effect, 100 is complete control) [15]: 30; Plant response rating, Pigweed [16]: 30; Pigweed plant response rating (0 to 100 scale, 0 is no effect, 100 is complete control) [16]: 30; Plant response rating, Barnyardgrass [17]: 70; Barnyardgrass plant response rating (0 to 100 scale, 0 is no effect, 100 is complete control) [17]: 90; Plant response rating, Kochia [18]: 50; Kochia plant response rating (0 to 100 scale, 0 is no effect, 100 is complete control) [18]: 50; Plant response rating, Ragweed [19]: 0; Ragweed plant response rating (0 to 100 scale, 0 is no effect, 100 is complete control) [19]: 0; Plant response rating, Foxtail, Giant [20]: 90; Foxtail, Giant plant response rating (0 to 100 scale, 0 is no effect, 100 is complete control) [20]: 90
